For data set [1], the system named is Protein cereblon/Epidermal growth factor receptor (Homo sapiens), P00533+Q96SW2 [UNDEFINED MUTATION]. The data set is described as follows: Protac activity at CRBN/EGFR deletion19 mutant in human PC-9 cells assessed as induction of EGFR degradation at 100 nM and measured after 24 hrs under normoxia condition by Western blot analysis. Format: cell-based. In general terms: In western blotting, separated proteins are transferred to a membrane and probed.

Data set [2] concerns PC-9. The experiment in a line: Antitumor activity against human PC-9 cells assessed as inhibition of cell viability incubated for 72 hrs under normoxia condition by CCK8 assay. Format: functional, cell-based. The note with it: PC-9, 72 h. (In general: Tetrazolium assays rely on reduction of a dye to a coloured formazan, in cell work by metabolically active cells.)
Data set [3] concerns PC-9. The experiment in a line: Antitumor activity against human PC-9 cells assessed as inhibition of cell viability incubated for 72 hrs under hypoxia condition by CCK8 assay. It counts as functional, cell-based. The note with it: PC-9, 72 h.
Data set [4] relates to PC-9. The experiment in a line: Induction of apoptosis in human PC-9 cells assessed as apoptotic cells at 0.1 uM incubated for 72 hrs under normoxia condition by Annexin V-FITC/ PI staining based flow cytometry (Rvb= 4.54%). Format: functional.
Data set [5] in a line: Prodrug conversion in hypoxia condition assessed as nitroreductase mediated drug degradation by measuring parent compound remaining in presence of NADPH as cofactor at 1 uM and measured after 60 mins by UPLC-MS/MS analysis. It counts as ADME. The note with it: isolated protein, 1 h.
For data set [6], the system named is PC-9. The experiment in a line: Induction of apoptosis in human PC-9 cells assessed as live cells at 0.1 uM incubated for 72 hrs under normoxia condition by Annexin V-FITC/ PI staining based flow cytometry (Rvb= 94.53%). Format: functional. A general note: In flow cytometry, cells or beads pass a laser one at a time.
Data set [7] has as its system PC-9. The data set is described as follows: Inhibition of cell migration in human PC-9 cells at 100 nM incubated for 24 hrs under normoxia condition by imaging analysis. Format: functional, cell-based.
In data set [8] the test system is Protein cereblon/Epidermal growth factor receptor (Homo sapiens), P00533+Q96SW2 [UNDEFINED MUTATION]. The data set is described as follows: Protac activity at CRBN/EGFR deletion19 mutant in human PC-9 cells assessed as induction of EGFR degradation at 0.001 to 1 uM and measured after 24 hrs under normoxia condition by Western blot analysis. It counts as cell-based. As to conditions: dose 0.001-1 µM.

Data set [9] concerns PC-9. The data set is described as follows: Induction of apoptosis in human PC-9 cells assessed as apoptotic cells at 0.1 uM incubated for 72 hrs under hypoxia condition by Annexin V-FITC/ PI staining based flow cytometry (Rvb= 9%). It counts as functional.
Data set [10] relates to PC-9. The data set is described as follows: Induction of apoptosis in human PC-9 cells assessed as live cells at 0.1 uM incubated for 72 hrs under hypoxia condition by Annexin V-FITC/ PI staining based flow cytometry (Rvb= 88.19%). Format: functional.
The test system of data set [11] is PC-9. The data set is described as follows: Induction of apoptosis in human PC-9 cells assessed as late apoptotic cells at 0.1 uM incubated for 72 hrs under hypoxia condition by Annexin V-FITC/ PI staining based flow cytometry (Rvb= 4.73%). Format: functional.
The subject of data set [12] is PC-9. The data set is described as follows: Induction of apoptosis in human PC-9 cells assessed as early apoptotic cells at 0.1 uM incubated for 72 hrs under hypoxia condition by Annexin V-FITC/ PI staining based flow cytometry (Rvb= 4.27%). Format: functional.
Data set [13] relates to Protein cereblon/Epidermal growth factor receptor (Homo sapiens), P00533+Q96SW2 [UNDEFINED MUTATION]. The data set is described as follows: Protac activity at CRBN/EGFR deletion19 mutant in human PC-9 cells assessed as induction of EGFR degradation at 0.001 to 1 uM and measured after 24 hrs under hypoxia condition by Western blot analysis. Format: cell-based. The note with it: dose 0.001-1 µM.

Data set [14] deals with PC-9. The experiment in a line: Induction of apoptosis in human PC-9 cells assessed as necrotic cells at 0.1 uM incubated for 72 hrs under normoxia condition by Annexin V-FITC/ PI staining based flow cytometry (Rvb= 0.93%). It counts as functional.
Data set [15] is described as follows: Prodrug conversion in hypoxia condition assessed as nitroreductase mediated active drug N-(4-((3-chloro-4-fluorophenyl)amino)-7-(((S)-tetrahydrofuran-3-yl)oxy)quinazolin-6-yl)-3-(2-(2-(2-((2-(2,6-dioxopiperidin-3-yl)-1,3-dioxoisoindolin-4-yl)oxy)ethoxy)ethoxy)ethoxy)propanamide formation in presence of NADPH as cofactor at 1 uM and measured after 60 mins by UPLC-MS/MS analysis. Format: ADME. The note with it: isolated protein, 1 h.

Data set [16] concerns PC-9. The data set is described as follows: Induction of apoptosis in human PC-9 cells assessed as late apoptotic cells at 0.1 uM incubated for 72 hrs under normoxia condition by Annexin V-FITC/ PI staining based flow cytometry (Rvb= 3.72%). Format: functional.
For data set [17], the system named is PC-9. The experiment in a line: Inhibition of cell migration in human PC-9 cells at 100 nM incubated for 24 hrs under hypoxia condition by imaging analysis. Format: functional, cell-based.
The subject of data set [18] is PC-9. The data set is described as follows: Induction of apoptosis in human PC-9 cells assessed as early apoptotic cells at 0.1 uM incubated for 72 hrs under normoxia condition by Annexin V-FITC/ PI staining based flow cytometry (Rvb= 0.82%). Format: functional.
Data set [19] relates to PC-9. The experiment in a line: Induction of apoptosis in human PC-9 cells assessed as necrotic cells at 0.1 uM incubated for 72 hrs under hypoxia condition by Annexin V-FITC/ PI staining based flow cytometry (Rvb= 2.81%). It counts as functional.
Data set [20] has as its system Protein cereblon/Epidermal growth factor receptor (Homo sapiens), P00533+Q96SW2 [UNDEFINED MUTATION]. The data set is described as follows: Protac activity at CRBN/EGFR deletion19 mutant in human PC-9 cells assessed as induction of EGFR degradation at 0.5 to 1 uM and measured after 24 hrs under hypoxia condition by Western blot analysis. Format: cell-based. The note with it: dose 0.5-1 µM.

Data set [21] has the same test system. The experiment in a line: Protac activity at CRBN/EGFR deletion19 mutant in human PC-9 cells assessed as induction of EGFR degradation at 0.001 to 0.1 uM and measured after 24 hrs under normoxia condition by Western blot analysis. Format: cell-based. The note with it: dose 0.001-0.1 µM.
The test system is the same in data set [22]. The experiment in a line: Protac activity at CRBN/EGFR deletion19 mutant in human PC-9 cells assessed as induction of EGFR degradation at 0.5 to 1 uM and measured after 24 hrs under normoxia condition by Western blot analysis. It counts as cell-based. As to conditions: dose 0.5-1 µM.
Data set [23] shares this test system. The data set is described as follows: Protac activity at CRBN/EGFR deletion19 mutant in human PC-9 cells assessed as induction of EGFR degradation at 0.001 to 0.1 uM and measured after 24 hrs under hypoxia condition by Western blot analysis. The note with it: dose 0.001-0.1 µM. Format: cell-based.

Calls of active or inactive are those of the source. The rule behind the calls is not given here.

Protein cereblon/Epidermal growth factor receptor (Homo sapiens), P00533+Q96SW2 [UNDEFINED MUTATION], sequence (P00533 whole entry, looked up, stated change not applied): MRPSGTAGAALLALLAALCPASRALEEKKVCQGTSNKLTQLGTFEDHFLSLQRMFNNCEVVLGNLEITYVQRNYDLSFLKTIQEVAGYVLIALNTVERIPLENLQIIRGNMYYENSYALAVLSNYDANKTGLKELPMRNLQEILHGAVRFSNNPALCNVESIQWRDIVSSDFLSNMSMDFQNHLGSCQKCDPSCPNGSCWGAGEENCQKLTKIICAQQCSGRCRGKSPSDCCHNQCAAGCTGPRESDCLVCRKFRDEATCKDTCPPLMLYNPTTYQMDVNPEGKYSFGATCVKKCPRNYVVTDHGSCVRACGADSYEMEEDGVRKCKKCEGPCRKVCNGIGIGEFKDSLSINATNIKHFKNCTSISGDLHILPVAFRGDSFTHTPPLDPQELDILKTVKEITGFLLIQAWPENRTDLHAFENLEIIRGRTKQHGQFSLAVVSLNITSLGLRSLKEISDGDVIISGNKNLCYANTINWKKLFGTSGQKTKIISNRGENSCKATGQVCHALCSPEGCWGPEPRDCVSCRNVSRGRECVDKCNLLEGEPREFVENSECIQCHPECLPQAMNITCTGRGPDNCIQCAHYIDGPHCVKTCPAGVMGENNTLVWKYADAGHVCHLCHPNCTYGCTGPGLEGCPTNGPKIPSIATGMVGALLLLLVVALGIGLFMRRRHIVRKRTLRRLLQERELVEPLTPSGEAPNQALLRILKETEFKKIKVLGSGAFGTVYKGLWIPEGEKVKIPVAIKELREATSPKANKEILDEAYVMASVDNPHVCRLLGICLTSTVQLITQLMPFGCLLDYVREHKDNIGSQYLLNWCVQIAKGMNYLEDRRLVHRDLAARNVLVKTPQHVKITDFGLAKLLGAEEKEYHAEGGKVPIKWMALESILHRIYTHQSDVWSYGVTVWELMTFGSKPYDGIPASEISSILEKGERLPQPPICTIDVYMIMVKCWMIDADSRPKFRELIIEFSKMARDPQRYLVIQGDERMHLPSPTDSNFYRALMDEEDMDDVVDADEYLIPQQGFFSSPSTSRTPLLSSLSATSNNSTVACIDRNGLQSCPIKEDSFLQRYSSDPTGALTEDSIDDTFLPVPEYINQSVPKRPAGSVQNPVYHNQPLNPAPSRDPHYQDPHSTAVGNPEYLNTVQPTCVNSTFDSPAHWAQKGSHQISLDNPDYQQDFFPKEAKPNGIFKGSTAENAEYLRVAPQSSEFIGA
Protein cereblon/Epidermal growth factor receptor (Homo sapiens), P00533+Q96SW2 [UNDEFINED MUTATION], sequence (Q96SW2 whole entry, looked up, stated change not applied): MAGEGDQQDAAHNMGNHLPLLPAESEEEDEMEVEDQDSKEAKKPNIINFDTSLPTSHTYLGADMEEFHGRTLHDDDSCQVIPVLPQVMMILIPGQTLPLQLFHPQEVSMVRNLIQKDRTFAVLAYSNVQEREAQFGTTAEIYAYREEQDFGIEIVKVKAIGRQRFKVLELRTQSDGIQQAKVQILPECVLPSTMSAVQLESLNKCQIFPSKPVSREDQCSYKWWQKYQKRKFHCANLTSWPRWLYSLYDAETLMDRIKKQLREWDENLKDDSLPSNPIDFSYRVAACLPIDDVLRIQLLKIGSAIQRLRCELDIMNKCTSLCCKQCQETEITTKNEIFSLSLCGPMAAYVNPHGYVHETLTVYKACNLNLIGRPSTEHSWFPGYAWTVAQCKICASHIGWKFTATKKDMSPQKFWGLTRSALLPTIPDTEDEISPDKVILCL

For `O=C1CCC(N2C(=O)c3cccc(OCCOCCOCCOCCC(=O)Nc4cc5c(Nc6ccc(F)c(Cl)c6)ncnc5cc4O[C@H]4CCOC4)c3C2=O)C(=O)N1` (stereo partly specified), in [1], the outcome was Active. Further, the IC50 with PC-9 [2] and with PC-9 [3] was 1300 nM throughout.
As for `Cn1c(CN2C(=O)CCC(N3C(=O)c4cccc(OCCOCCOCCOCCC(=O)Nc5cc6c(Nc7ccc(F)c(Cl)c7)ncnc6cc5O[C@H]5CCOC5)c4C3=O)C2=O)cnc1[N+](=O)[O-]` (stereo partly specified), the Activity was 22.11% with PC-9 [4]; 75.71% with PC-9 [6]; 52.36% in the data set on PC-9 [9]; 44.8% in the data set on PC-9 [10]; 17.28% in the data set with PC-9 [11]; 35.08% with PC-9 [12]. In addition, the Activity in the data set on PC-9 [14] amounted to 2.18%; in the data set with PC-9 [16], 11.21%; with PC-9 [18], 10.9%; with PC-9 [19] it was 2.83%. Besides, in data set [5], the Stability result is reported as “Unstable”. In addition, the inhibition entry in the data set with PC-9 [7] was “inactive”. Besides, the outcome in data set [8] was inactive. Further, the result in [13] was Active. Also, the Drug metabolism result in data set [15] is given as “Metabolite_Detected”. Further, the results for the IC50 in the data set with PC-9 [2] and in the data set with PC-9 [3] were 1100 nM and 610 nM, respectively. In the data set on PC-9 [17], the inhibition entry is “Active”.
Consider `O=C(CCOCCOCCOCCOc1cccc2c1C(=O)N(C1CCC(=O)N(Cc3ccc([N+](=O)[O-])cc3)C1=O)C2=O)Nc1cc2c(Nc3ccc(F)c(Cl)c3)ncnc2cc1O[C@H]1CCOC1` (stereo partly specified), for which the Activity with PC-9 [4] was determined as 6.26%; in the data set on PC-9 [6], 92.63%; with PC-9 [9] it was 17.33%; with PC-9 [10], 80.78%; with PC-9 [11], 7.96%; in the data set with PC-9 [12], 9.37%. Also, the Activity with PC-9 [14] came to 1.1%; in the data set with PC-9 [16], 2.98%; in the data set with PC-9 [18], 3.28%; in the data set on PC-9 [19] it was 1.89%. Besides, in [5], the Stability result is recorded as “Unstable”. Further, in the data set on PC-9 [7], the inhibition entry is “inactive”. The outcome in data set [20], in [22] and in data set [23] was Active. The result in data set [21] was inactive. In addition, the Drug metabolism entry in [15] is reported as “Metabolite_Detected”. In addition, the IC50 (as a rule, the concentration that gives 50% inhibition) in the data set with PC-9 [2] was determined as 1920 nM; with PC-9 [3] it was 1090 nM. Moreover, the inhibition result in the data set on PC-9 [17] was “Active”.

The values are drawn from ChEMBL document CHEMBL5252616, “Design, synthesis and biological evaluation of the tumor hypoxia-activated PROTACs bearing caged CRBN E3 ligase ligands” (Bioorg Med Chem, 2023).
